Data reported in patent US20190327974A1, “SYNERGISTS FOR IMPROVED PESTICIDES” (priority 2017, published 2019).

How the values were obtained:
Assay in all cases: Protease selectivity panel
Format in all cases: biochemical
Settings in all cases: 100 μM compound, n = 2
PSMB7 = biological target: T1, PSMB7 (Homo sapiens, UniProt Q99436)
T1 construct: purchased BOSTON-BIOCHEM
Experimental: (§1) Test compounds were dissolved in 100% DMSO to make 10 mM stock. Final compound concentration in assay is […]. Compounds were tested in duplicate wells at single concentration and the final concentration of DMSO in all assays was kept at 1%. Five reference compounds, AEBSF, Carfilzomib, Granzyme B Inhibitor II, Dec-RVKR-CMK, and Teneligliptin hydrobromide, were tested in an identical manner with 8 concentration points at 5× dilutions.

Furin = biological target: T2, Furin (Homo sapiens, UniProt P09958)
T2 construct: purchased R&D Systems
T2 sequence (P09958 108-794): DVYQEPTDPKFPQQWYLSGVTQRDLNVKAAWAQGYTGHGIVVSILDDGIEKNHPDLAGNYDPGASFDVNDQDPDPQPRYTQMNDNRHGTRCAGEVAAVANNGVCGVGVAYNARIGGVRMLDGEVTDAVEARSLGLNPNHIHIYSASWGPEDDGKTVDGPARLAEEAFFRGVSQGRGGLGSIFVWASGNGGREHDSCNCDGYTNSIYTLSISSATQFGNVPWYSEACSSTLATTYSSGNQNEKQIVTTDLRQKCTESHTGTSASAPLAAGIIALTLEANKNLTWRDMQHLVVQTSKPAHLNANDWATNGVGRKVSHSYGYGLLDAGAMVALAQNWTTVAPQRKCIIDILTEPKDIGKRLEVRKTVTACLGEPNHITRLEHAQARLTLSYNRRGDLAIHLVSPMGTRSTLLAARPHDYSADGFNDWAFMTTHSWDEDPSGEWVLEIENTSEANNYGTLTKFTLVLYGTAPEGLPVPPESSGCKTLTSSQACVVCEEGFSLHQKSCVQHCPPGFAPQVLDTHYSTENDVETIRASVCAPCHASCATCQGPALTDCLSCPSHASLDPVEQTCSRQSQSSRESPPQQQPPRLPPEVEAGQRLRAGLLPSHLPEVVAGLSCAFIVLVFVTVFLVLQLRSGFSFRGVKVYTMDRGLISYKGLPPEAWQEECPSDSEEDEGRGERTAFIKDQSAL
Experimental: as §1

Spinesin = biological target: T3, Spinesin (Homo sapiens, UniProt Q9H3S3)
T3 construct: purchased R&D Systems
T3 sequence (Q9H3S3 218-457 limits assumed): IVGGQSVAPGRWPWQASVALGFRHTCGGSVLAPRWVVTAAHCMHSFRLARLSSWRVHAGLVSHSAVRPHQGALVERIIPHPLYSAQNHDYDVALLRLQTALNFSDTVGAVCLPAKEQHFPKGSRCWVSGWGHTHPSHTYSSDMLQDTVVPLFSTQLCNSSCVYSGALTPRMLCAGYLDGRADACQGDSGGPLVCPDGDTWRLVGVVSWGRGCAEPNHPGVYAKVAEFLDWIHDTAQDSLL
Experimental: as §1

HTRA2 = biological target: T4, HTRA2 (Homo sapiens, UniProt O43464)
T4 construct: purchased R&D Systems
T4 sequence (O43464 134-458): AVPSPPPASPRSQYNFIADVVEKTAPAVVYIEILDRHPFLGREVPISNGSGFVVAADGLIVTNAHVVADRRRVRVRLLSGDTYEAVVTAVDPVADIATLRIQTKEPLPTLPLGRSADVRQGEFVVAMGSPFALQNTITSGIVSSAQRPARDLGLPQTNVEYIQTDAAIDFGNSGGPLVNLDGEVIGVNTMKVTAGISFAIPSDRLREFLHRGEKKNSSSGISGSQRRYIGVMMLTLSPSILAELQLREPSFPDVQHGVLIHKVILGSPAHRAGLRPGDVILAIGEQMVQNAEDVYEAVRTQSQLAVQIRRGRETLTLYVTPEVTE
Experimental: as §1

uPA = biological target: T5, uPA (Homo sapiens, UniProt P00749)
T5 construct: purchased R&D Systems
Experimental: as §1

Matriptase = biological target: T6, Matriptase (Homo sapiens, UniProt Q9Y5Y6)
T6 construct: purchased R&D Systems
T6 sequence (Q9Y5Y6 1-855): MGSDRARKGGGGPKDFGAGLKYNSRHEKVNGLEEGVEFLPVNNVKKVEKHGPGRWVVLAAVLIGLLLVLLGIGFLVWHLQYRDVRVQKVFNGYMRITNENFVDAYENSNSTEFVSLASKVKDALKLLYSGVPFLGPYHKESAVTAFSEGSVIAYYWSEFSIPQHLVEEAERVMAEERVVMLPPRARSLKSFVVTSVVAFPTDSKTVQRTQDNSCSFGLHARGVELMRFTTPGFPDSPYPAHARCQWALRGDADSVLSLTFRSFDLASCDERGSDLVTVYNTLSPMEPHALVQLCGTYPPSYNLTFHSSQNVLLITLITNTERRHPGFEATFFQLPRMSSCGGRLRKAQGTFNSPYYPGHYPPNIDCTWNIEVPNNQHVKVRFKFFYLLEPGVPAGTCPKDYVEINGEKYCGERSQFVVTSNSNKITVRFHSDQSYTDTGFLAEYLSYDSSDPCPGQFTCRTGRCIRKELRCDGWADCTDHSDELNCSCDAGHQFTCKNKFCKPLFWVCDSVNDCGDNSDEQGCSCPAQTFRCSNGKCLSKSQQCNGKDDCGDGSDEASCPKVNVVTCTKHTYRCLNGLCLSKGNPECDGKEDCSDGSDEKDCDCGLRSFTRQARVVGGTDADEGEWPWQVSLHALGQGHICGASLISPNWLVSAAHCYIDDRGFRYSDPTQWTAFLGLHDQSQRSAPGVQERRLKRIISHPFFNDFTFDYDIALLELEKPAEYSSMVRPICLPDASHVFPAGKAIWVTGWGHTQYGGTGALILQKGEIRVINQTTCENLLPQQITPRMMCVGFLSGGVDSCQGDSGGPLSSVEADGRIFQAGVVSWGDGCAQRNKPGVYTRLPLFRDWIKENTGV
Experimental: as §1

Thrombin = biological target: T7, Thrombin (Homo sapiens, UniProt P00734)
T7 construct: Thrombin; purchased R&D Systems
Experimental: as §1

Factor VII = biological target: T8, Factor VII (Homo sapiens, UniProt P08709)
T8 construct: purchased R&D Systems
T8 sequence (P08709 213-466 limits assumed): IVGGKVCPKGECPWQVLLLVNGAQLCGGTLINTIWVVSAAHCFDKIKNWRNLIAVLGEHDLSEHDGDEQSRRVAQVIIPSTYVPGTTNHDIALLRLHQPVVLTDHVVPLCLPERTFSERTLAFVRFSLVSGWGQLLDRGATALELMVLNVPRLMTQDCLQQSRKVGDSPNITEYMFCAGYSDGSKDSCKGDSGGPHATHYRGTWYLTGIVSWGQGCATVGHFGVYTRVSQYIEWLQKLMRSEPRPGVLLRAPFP
T8 sequence (P08709 61-212 partner limits assumed): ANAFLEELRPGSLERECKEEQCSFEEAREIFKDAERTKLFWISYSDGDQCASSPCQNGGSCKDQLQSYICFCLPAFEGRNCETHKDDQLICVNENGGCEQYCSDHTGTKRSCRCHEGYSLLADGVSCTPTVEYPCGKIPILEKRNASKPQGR
T8 sequence (P13726 33-251 partner limits assumed): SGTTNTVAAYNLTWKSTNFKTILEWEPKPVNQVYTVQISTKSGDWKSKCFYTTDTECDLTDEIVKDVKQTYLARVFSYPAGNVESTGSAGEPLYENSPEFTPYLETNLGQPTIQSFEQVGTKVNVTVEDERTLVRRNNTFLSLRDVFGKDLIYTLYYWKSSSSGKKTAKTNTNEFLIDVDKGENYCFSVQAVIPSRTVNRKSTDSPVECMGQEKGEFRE
Experimental: as §1

PSMB5 = biological target: T9, PSMB5 (Homo sapiens, UniProt P28074)
T9 construct: purchased BOSTON-BIOCHEM
Experimental: as §1

DPP9 = biological target: T10, DPP9 (Homo sapiens, UniProt Q86TI2)
T10 construct: purchased ENZO
T10 sequence (Q86TI2 whole entry): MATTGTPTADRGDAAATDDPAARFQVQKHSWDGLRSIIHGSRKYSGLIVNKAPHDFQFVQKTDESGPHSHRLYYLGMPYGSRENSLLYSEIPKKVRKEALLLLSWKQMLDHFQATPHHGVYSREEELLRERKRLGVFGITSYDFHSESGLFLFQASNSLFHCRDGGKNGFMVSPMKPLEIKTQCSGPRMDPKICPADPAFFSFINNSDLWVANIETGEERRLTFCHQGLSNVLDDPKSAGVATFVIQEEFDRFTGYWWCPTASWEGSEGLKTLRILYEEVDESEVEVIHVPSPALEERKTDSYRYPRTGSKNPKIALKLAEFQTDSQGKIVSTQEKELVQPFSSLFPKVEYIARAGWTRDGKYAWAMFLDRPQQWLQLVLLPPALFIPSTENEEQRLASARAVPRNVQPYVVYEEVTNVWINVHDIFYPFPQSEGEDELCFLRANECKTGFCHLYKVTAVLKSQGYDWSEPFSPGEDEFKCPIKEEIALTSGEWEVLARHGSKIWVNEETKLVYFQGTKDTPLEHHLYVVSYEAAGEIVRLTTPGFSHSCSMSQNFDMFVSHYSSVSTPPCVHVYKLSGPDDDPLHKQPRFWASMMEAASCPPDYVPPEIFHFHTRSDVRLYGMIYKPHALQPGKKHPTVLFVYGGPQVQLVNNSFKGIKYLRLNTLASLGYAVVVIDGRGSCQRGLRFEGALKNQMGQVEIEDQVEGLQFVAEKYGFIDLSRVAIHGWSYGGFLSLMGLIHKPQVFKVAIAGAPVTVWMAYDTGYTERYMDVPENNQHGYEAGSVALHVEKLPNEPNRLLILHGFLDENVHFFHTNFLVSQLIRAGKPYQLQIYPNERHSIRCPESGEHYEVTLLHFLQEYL
Experimental: as §1

Factor-Xa = biological target: T11, Factor-Xa (Homo sapiens, UniProt P00742)
T11 construct: Factor Xa; Calbiochem; B76791; purchased Calbiochem
T11 sequence (P00742 235-488 limits assumed): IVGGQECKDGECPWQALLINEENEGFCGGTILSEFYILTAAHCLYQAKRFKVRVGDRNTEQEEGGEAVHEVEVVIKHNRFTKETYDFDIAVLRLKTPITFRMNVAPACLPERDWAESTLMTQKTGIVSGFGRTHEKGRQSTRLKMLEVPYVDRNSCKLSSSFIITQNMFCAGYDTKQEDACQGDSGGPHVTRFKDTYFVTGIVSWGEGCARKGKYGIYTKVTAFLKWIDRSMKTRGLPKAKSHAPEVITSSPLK
T11 sequence (P00742 41-179 partner limits assumed): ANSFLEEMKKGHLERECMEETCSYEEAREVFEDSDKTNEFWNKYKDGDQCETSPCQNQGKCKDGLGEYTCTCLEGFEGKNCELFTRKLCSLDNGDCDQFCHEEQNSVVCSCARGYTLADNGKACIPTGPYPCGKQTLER
Experimental: as §1

Kallikrein11 = biological target: T12, Kallikrein11 (Homo sapiens, UniProt Q9UBX7)
T12 construct: purchased R&D Systems
T12 sequence (Q9UBX7 54-282): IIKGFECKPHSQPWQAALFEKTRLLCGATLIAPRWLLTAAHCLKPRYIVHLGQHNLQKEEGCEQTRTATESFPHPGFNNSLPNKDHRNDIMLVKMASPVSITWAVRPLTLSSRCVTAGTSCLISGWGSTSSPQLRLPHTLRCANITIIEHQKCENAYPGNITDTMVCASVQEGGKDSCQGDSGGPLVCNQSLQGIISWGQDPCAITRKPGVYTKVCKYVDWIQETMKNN
Experimental: as §1

SMILES | inhibition at 100 µM (PSMB7) [%] | inhibition at 100 µM (Furin) [%] | inhibition at 100 µM (Spinesin) [%] | inhibition at 100 µM (HTRA2) [%] | inhibition at 100 µM (uPA) [%] | inhibition at 100 µM (Matriptase) [%] | inhibition at 100 µM (Thrombin) [%] | inhibition at 100 µM (Factor VII) [%] | inhibition at 100 µM (PSMB5) [%] | inhibition at 100 µM (DPP9) [%] | inhibition at 100 µM (Factor-Xa) [%] | inhibition at 100 µM (Kallikrein11) [%]
OB(O)c1cc(Br)cc(N2CCCC2)c1 [Compound 3] | 39 | 1 | 26 | 23 | 67 | -1 | 32 | 15 | 3 | 45 | 53 | -71
OB(O)c1cc(Br)cc(OCc2ccccc2)c1 [Compound 3.9] | 70 | -2 | 13 | 28 | 40 | 5 | 54 | 26 | 34 | 75 | 26 | -148
OB(O)c1cc(Br)cc(Oc2ccccc2)c1 [Compound 3.10, 3-Bromo-5-phenoxyfenylboronic acid] | 48 | -5 | 34 | 2 | 32 | 4 | 58 | 53 | 2 | 71 | 35 | -43
